The values that follow come from patent US20080155704A1, “Methods and Compositions for Determining in vivo Activity of BiP” (King's College London, priority 2006, published 2008).

Common to all, as to assay type: cell-based, human
In one experiment the test system is IL-10. In words: IL-10 production by dendritic cell cultures (ELISA). As to conditions: 3d GM-CSF and IL-4 with BiP 20 μg/ml; inhibitors 10 μM, anti-IL-10 added at day 0 (FIG. 13D). The protocol:
(§1) Supernatant samples were collected on day 1, 3 and 7 for iDC and from the final cultures of the T cells taken from the iDC/mDC-T cell allogeneic test system and set up with autologous cells to determine if there was any regulatory activity. The samples were aliquoted and frozen at −70° C. until required. Production IL-10 was quantified by ELISA using paired antibodies and recombinant standards (PharMingen, Oxford, UK) according to the recommendations of the manufacturer. In addition some were analysed by cytometric bead assay (BD, Oxford, UK) according to the manufacturers instructions.
(§2) To neutralize IL-10 within the cultures anti-IL-10 antibody (ATCC, Rockville, USA) was added at day 0 (5 μg/ml) to GM-CSF and IL-4 treated cultures in the presence and absence of BiP (20 μg/ml). Two specific cell-permeable inhibitors of the MAPK intracellular signalling pathways were used. SB203580 (SB)(10 μM)((Calbiochem, Darmstadt, Germany) inhibits p38 MAPK, and PD98059 (PD) (10 μM)(Calbiochem), an inhibitor of MAPK extracellular signal regulated kinase (ERK), were tested. MO were pre-treated with the inhibitors for 2 h before adding GM-CSF and IL-4 in the presence or absence of BiP.
as §1, with “of the pro-inflammatory cytokine, TNFα, and the anti-inflammatory cytokine, IL-10,” for “IL-10”
In general terms: ELISA stands for enzyme-linked immunosorbent assay.

The next experiment relates to allogeneic T cells. In words: Allogeneic proliferative response to early BiP treated DC (tritiated thymidine uptake). As to conditions: early DC 72 h; inhibitors 10 μM 2 h pre-treatment of monocytes; anti-IL-10 neutralizing antibody (FIG. 13A, B). The protocol: Allogeneic responses by T cells in culture with irradiated (3,000 rads) early DC (eDC), after only 3d in culture with GM-CSF and IL-4 in the presence or absence of BiP (20 μg/ml) at a ratio of 10:1 PBMC:DC (105:10^4 cells/well). The results are shown as an allogeneic proliferative response (A) following addition of neutralizing anti-IL-10 ( 1/100 dilution) antibody and (B) the pre-treatment (2 h) of monocytes (MO) with p38 inhibitor, SB203580 (SB)(10 μM) or the ERK1/2 inhibitor, PD 98059 (PD)(10 μM), prior to the addition of GM-CSF and IL-4 to the cultures. The proliferation of PBMC to early DC following (C) the addition of BiP 24 h post addition of GM-CSF and IL-4. Proliferation was measured by uptake of tritiated thymidine and recorded as counts per minute (cpm). ELISA was used to detect IL-10 (D) in the culture supernatants and (E) by 7d cultured iDC/iDC(BiP) and fully matured mDC/mDC(BiP) differentiated as described in following 7d culture in GM-CSF and IL-4 with LPS (500 ng/ml) added for the final 2d.
as §2

The next experiment deals with T cells. As to the kind of experiment: Regulatory markers on T cells co-cultured with BiP-treated dendritic cells. The protocol:
FIG. 11: Co-culture of T cells with BiP-treated dendritic cells (DC) upregulates regulatory markers. […] Mean ±standard deviation of three experiments is shown.
Intracellular staining was carried out with fixed cells incubated with 1% paraformaldehyde in IF buffer for 5 minutes at room temperature. The cells were washed twice with IF buffer containing 0.3% saponin for permeabilization. 0.3% saponin was then present in all IF buffer used thereafter. CTLA-4/CD152 (BD), FoxP3 (eBioscience) and indolamine 2,3-dioxygenase (Santa Cruz) and cytokines required intracellular staining. Antibodies were added at the pre-determined optimal concentration for 20 mins and then the cells were washed twice with IF buffer and analysed. Isotype controls, IgG1 and IgG2a (Becton Dickinson, Oxford, UK) were used in parallel. Cells were analysed on a FACScan cytometer using Cellquest software (Becton Dickinson, Oxford, UK).
T cells were purified from peripheral blood mononuclear cells and set up in culture with either allogeneic or autologous dendritic cells, which had been washed and irradiated, at a ratio of 10 T cells:1 DC. The cells were co-cultured in a 24 well plate in 1 ml/well, in RPMI 1640 supplemented with 10% foetal calf serum, for 4 days then the T cells were removed and washed before being investigated for the presence of T regulatory cells (see below)
Immunofluorescent staining was performed, as described previously (39), on DC harvested at day 7, T cells after 4 days co-culture with DC. Saturating concentrations of fluorescein isothiocyanate (FITC)-, phycoerythrin (PE) or peridium chlorophyll (Per-CP)-conjugated mAb were added recognizing CD14, CD86, CD80, HLA-DR, CD11c, CD1a, CD83, CD85j, IL-10 receptor; purity of the negatively selected MO and T cells was checked using CD3, CD4, CD14, CD20 and CD57 (all from Becton Dickinson/PharMingen (BD), Oxford, UK). Intracellular staining was carried out following fixation of cells with 1% paraformaldehyde for 5 minutes. Cells were then washed with immunofluorescence buffer (PBS/0.1% BSA/0.05% azide) containing 0.3% saponin. 0.3% saponin was then present in all solutions thereafter. CD152/CTLA-4 (BD, Oxford UK) and IDO (Santa Cruz, Autogen Bioclear, UK) were intracellular stains. Isotype controls, IgG1 and IgG2a (BD, Oxford, UK) were used in parallel. Cells were analysed on a FACScan/FACScalibur cytometers using Cellquest software (BD, Oxford, UK).

For the compound `C[S+]([O-])c1ccc(-c2nc(-c3ccncc3)c(-c3ccc(F)cc3)[nH]2)cc1` (stereo not drawn) [SB203580, reference compound], in the experiment on IL-10, the “IL-10 production by early DC(BiP) cultures” value is on record as “not detected”. The “reversal of BiP's inhibitory activity on the allogeneic response” value with allogeneic T cells is listed as “totally reversed BiP's inhibitory activity”.

With `Cn1cc(C[C@H](N)C(=O)O)c2ccccc21` [1MT, 1 methyl tryptophan, reference compound], in the experiment with T cells (1MT 200 μM added to co-cultures of T cells with autologous mDC or mDC(BiP)), the “proliferation of T cells in an allogeneic response after co-culture with 1MT” value is “increased proliferation by the T cells”. Further, the “T cell expression of intracellular CTLA-4 in the presence of 1MT” value in the experiment with T cells (1MT 200 μM in mDC/mDC(BiP)-T cell co-cultures, n=3) is listed as “significant reduction in T cell expression of CTLA-4”.

Regarding `COc1cccc(-c2cc(=O)c3ccccc3o2)c1N` [PD98059, reference compound], in the experiment on IL-10, the “IL-10 production by early DC(BiP) cultures” value was “did not inhibit IL-10 production”. Further, the “reversal of BiP's inhibitory activity on the allogeneic response” value in the experiment with allogeneic T cells was “could not”.
